One compound from patent US12122783B2, “Stable salt of 5,10-methylene-(6R)-tetrahydrofolic acid” (MERCK & CIE, priority 2013, dated 2024) can be followed below.

The data set is described as follows: Comparative long-term stability of sulfate salt, content by HPLC. The data set is classed as physicochemical. The method, then: In order to compare the long-term stabilities of (6R)-5,10-CH2-THF hemisulfate salt, the compounds of the invention, to the long-term stabilities of (6R)-5,10-CH2-THF sulfate salt prepared according to EP 0 537 492 B1, stability data for (6R)-5,10-CH2-THF sulfate salt has been generated at various temperatures and humidities. • (a) Stability of (6R)-5,10-CH2-THF sulfate
(6R)-5,10-CH2-THF sulfate salt was prepared according to literature procedures (EP 0 537 492 B1) and stored for 15 month at −20° C. Subsequently, samples of the product were stored at 5° C. resp. at 25° C. and 60% relative humidity resp. at 40° C. and 75% relative humidity. The content of (6R)-5,10-CH2-THF sulfate salt remaining in the sample was measured by HPLC at periodic intervals. The content of (6R)-5,10-CH2-THF sulfate was compared to the initial value at the time of preparation (% rel.).

Structures can show the parent of a compound that is named as a salt.

Regarding `Nc1nc2c(c(=O)[nH]1)N1CN(c3ccc(C(=O)N[C@@H](CCC(=O)O)C(=O)O)cc3)C[C@H]1CN2` [(6R)-5,10-CH2-THF sulfate, 5,10-methylene-(6R)-tetrahydrofolic acid], the “(6R)-5,10-CH2-THF sulfate remaining” value is, setting by setting: (5 °C, 0 months, after 15 months at −20 °C, relative to value at preparation) 98.7 % rel; (5 °C, 6 months, after 15 months at −20 °C, relative to value at preparation) 97.3 % rel; (25 °C/60% rh, 0 months, after 15 months at −20 °C, relative to value at preparation) 98.7 % rel; (25 °C/60% rh, 6 months, after 15 months at −20 °C, relative to value at preparation) 95.5 % rel; (40 °C/75% rh, 0 months, after 15 months at −20 °C, relative to value at preparation) 98.7 % rel; (40 °C/75% rh, 6 months, after 15 months at −20 °C, relative to value at preparation) 95.0 % rel. Moreover, the “(6R)-5,10-CH2-THF sulfate remaining” value reads like this: (−20 °C, 0 months) 100.0 % rel; (−20 °C, 15 months) 98.7 % rel.
